# Measured values from patent US20160375006A1, “USES OF PARALOG-SELECTIVE INHIBITORS OF GSK3 KINASES” (priority 2012, published 2016).
# Read-outs that look alike come from different tables or passages of the source.
# Tests used:
# [1] = target: T1, GSK3β (Homo sapiens, UniProt P49841)
# Experimental: (§1) Reactions were terminated by the addition of 10 mM EDTA. Substrate and product were separated electrophoretically and fluorescence intensity of the substrate and product was determined by Labchip EZ Reader II (Caliper Life Sciences, MA). The kinase activity was measured as percent conversion. The reactions were performed in duplicate for each sample. […] The results were analyzed by Genedata Assay Analyzer. The percent inhibition was plotted against the compound concentration and the IC50 value was determined from the logistic dose-response curve fitting.
# [2] = target: T1, GSK3β; experiment: biochemical
# Experimental: as §1
# [3] = target: GSK3α (Homo sapiens, UniProt P49840); experiment: biochemical
# [4] = Caliper assay, GSK3β over GSK3α
# T1 sequence (P49841 whole entry): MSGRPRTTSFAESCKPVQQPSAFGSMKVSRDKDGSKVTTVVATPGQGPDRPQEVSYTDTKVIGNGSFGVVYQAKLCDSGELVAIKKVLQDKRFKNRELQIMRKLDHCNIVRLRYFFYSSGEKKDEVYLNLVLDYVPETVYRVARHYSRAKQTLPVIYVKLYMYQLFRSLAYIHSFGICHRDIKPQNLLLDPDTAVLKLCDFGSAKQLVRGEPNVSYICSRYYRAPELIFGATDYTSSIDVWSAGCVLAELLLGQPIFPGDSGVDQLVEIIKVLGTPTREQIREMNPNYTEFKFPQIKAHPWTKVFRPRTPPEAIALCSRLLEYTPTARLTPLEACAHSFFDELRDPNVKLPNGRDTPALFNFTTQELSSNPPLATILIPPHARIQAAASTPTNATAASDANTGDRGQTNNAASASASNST
# Chain of GSK3α (P49840 whole entry): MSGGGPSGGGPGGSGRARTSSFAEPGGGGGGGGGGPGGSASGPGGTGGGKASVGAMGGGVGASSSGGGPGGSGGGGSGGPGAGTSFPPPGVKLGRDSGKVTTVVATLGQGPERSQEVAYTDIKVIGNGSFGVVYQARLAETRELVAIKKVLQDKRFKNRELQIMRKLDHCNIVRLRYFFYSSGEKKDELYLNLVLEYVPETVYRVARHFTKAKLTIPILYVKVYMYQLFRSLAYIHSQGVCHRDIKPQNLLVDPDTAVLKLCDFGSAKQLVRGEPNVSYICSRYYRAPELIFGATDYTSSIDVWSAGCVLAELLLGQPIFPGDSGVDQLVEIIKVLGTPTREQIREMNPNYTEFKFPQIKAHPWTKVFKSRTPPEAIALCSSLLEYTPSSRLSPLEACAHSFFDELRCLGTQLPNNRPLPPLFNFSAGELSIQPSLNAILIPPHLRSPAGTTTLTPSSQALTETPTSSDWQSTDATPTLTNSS
SMILES,"GSK3β fold selectivity [1, 4] [fold]",IC50 [2] [nM],IC50 [3] [nM],GSK3β fold selectivity [1] [fold]
CC(C)(C)Cc1[nH]nc2c1[C@@]1(CCOc3ccccc31)C1=C(CC(C)(C)CC1=O)N2 (stereo in doubt) [Compound 288],7.7,18,139,
CC(C)(C)Cc1[nH]nc2c1[C@]1(CCOc3ccccc31)C1=C(CC(C)(C)CC1=O)N2 (stereo in doubt) [Compound 289],5.6,530,2980,
CCC(C)(C)Cc1[nH]nc2c1[C@@]1(CCc3cc(F)ccc31)C1=C(CC(C)(C)CC1=O)N2 (stereo in doubt) [Compound 293],11.3,127,1440,
CC(C)c1[nH]nc2c1[C@](C)(c1ccccc1)C1=C(CC(C)(C)CC1=O)N2 (stereo in doubt) [Compound 297],2.3,24,56,
CC(C)c1[nH]nc2c1[C@@](C)(c1ccccc1)C1=C(CC(C)(C)CC1=O)N2 (stereo in doubt) [Compound 298],2.1,229,479,
CC(C)Cc1[nH]nc2c1[C@](C)(c1ccccc1)C1=C(CC(C)(C)CC1=O)N2 (stereo in doubt) [Compound 307],5.8,41,237,
CC(C)c1[nH]nc2c1[C@](C)(c1ccccc1F)C1=C(CC(C)(C)CC1=O)N2 (stereo in doubt) [Compound 312],5.8,66,386,
CC(C)c1[nH]nc2c1[C@@](C)(c1ccccc1F)C1=C(CC(C)(C)CC1=O)N2 (stereo in doubt) [Compound 313],11.3,385,4340,
CC(C)c1[nH]nc2c1[C@](C)(c1ccccc1Cl)C1=C(CC(C)(C)CC1=O)N2 (stereo in doubt) [Compound 316],8.9,703,6280,
CC(C)c1[nH]nc2c1[C@@](C)(c1ccccc1Cl)C1=C(CC(C)(C)CC1=O)N2 (stereo in doubt) [Compound 317],3.8,3430,12900,
CC1(C)CC(=O)C2=C(C1)Nc1n[nH]c(Cc3ccccc3)c1[C@]2(C)c1ccccc1 (stereo in doubt) [Compound 327],3.3,185,607,
CC1(C)CC(=O)C2=C(C1)Nc1n[nH]c(C3CC(F)(F)C3)c1[C@@]21COc2ccccc21 [Compound 256],,2,13,6.5
CC1(C)CC(=O)C2=C(C1)Nc1n[nH]c(C3CC(F)(F)C3)c1[C@]21COc2ccccc21 [Compound 257],,21,339,16.1
CC1(C)CC(=O)C2=C(C1)Nc1n[nH]c(C3CC(F)(F)C3)c1[C@@]21CCc2ccccc21 [Compound 259],,20,87,4.4
CC1(C)CC(=O)C2=C(C1)Nc1n[nH]c(C3CC(F)(F)C3)c1[C@]21CCc2ccccc21 [Compound 260],,53,444,8.4
CC1(C)CC(=O)C2=C(C1)Nc1n[nH]c(C3CC(F)(F)C3)c1[C@@]21CCc2c(F)cccc21 [Compound 262],,124,542,4.4
CC1(C)CC(=O)C2=C(C1)Nc1n[nH]c(C3CC(F)(F)C3)c1[C@@]21CCc2cc(F)ccc21 [Compound 265],,81,710,8.8
CC1(C)CC(=O)C2=C(C1)Nc1n[nH]c(C3CC(F)(F)C3)c1[C@]21CCc2cc(F)ccc21 [Compound 266],,38,342,9.0
CC1(C)CC(=O)C2=C(C1)Nc1n[nH]c(C3CC(F)(F)C3)c1C21CCCc2ccccc21 (stereo not drawn) [Compound 267],,38,342,9.0
CC1(C)CC(=O)C2=C(C1)Nc1n[nH]c(C3CC(F)(F)C3)c1[C@@]21CCOc2ccccc21 [Compound 269],,18,164,9.1
CC1(C)CC(=O)C2=C(C1)Nc1n[nH]c(C3CC(F)(F)C3)c1[C@]21CCOc2ccccc21 [Compound 270],,210,1630,7.8
CN1C(=O)C2(C3=C(CC(C)(C)CC3=O)Nc3n[nH]c(CC(C)(C)C)c32)c2ccccc21 (stereo not drawn) [Compound 287],8.8,939,8300,

# Further compounds by falling IC50 [2], results first:
"GSK3β fold selectivity [1, 4] [fold]",IC50 [2] [nM],IC50 [3] [nM],SMILES,GSK3β fold selectivity [1] [fold]
5.2,5280,27500,CC1(C)CC(=O)C2=C(C1)Nc1n[nH]c(C3CCCC3)c1[C@@]2(C)c1ccccc1 (stereo in doubt) [Compound 302],
3.4,5060,17400,CC1(C)CC(=O)C2=C(C1)Nc1n[nH]c(C3CCCCC3)c1[C@@]2(C)c1ccccc1 (stereo in doubt) [Compound 305],
5.5,4040,22300,CC(C)Cc1[nH]nc2c1[C@@](C)(c1ccccc1)C1=C(CC(C)(C)CC1=O)N2 (stereo in doubt) [Compound 308],
4.0,3020,12000,CCC(C)(C)Cc1[nH]nc2c1[C@@](C)(c1ccccc1)C1=C(CC(C)(C)CC1=O)N2 (stereo in doubt) [Compound 292],
2.4,977,2380,CC1(C)CC(=O)C2=C(C1)Nc1n[nH]c(C3CCCCC3)c1[C@]2(C)c1ccccc1 (stereo in doubt) [Compound 304],
6.1,785,4760,CCC(C)(C)Cc1[nH]nc2c1[C@]1(CCc3cc(F)ccc31)C1=C(CC(C)(C)CC1=O)N2 (stereo in doubt) [Compound 294],
2.9,372,1060,CC1(C)CC(=O)C2=C(C1)Nc1n[nH]c(C3CCCC3)c1[C@]2(C)c1ccccc1 (stereo in doubt) [Compound 301],
3.4,100,340,CCC1(c2ccccc2)C2=C(CC(C)(C)CC2=O)Nc2n[nH]c(CC(C)(C)C)c21 (stereo not drawn) [Compound 274],
3.1,90,277,CCC(C)c1[nH]nc2c1C(C)(c1ccccc1)C1=C(CC(C)(C)CC1=O)N2 (stereo not drawn) [Compound 299],
3.2,76,241,CC(C)c1[nH]nc2c1C(C)(c1ccccc1)C1=C(CC(C)(C)CC1=O)N2 (stereo not drawn) [Compound 296],
8.1,57,462,COc1ccccc1[C@H]1C2=C(CC(C)(C)CC2=O)Nc2n[nH]c(C(C)C)c21 [Compound 295],
6.4,52,332,CCC(C)(C)Cc1[nH]nc2c1[C@](C)(c1ccccc1)C1=C(CC(C)(C)CC1=O)N2 (stereo in doubt) [Compound 291],
